# Measured values: PMC10239968, “[^18F]AlF-NOTA-ADH-1: A new PET molecular radiotracer for imaging of N-cadherin-positive tumors” (Frontiers in Oncology, 2023)
# Where two headings read alike, the source gives them in different places.
# Test system: SW480 tumor xenografts
# Format: in vivo, BALB/c nu/nu mice
# Settings: SW480 xenograft nude mice, n=5, mean±SD
# Description: All animal experiments were performed in accordance with and approved by the Institutional Animal Care and Use Committee guidelines of the First Affiliated Hospital of Zhejiang University School of Medicine. BALB/c nu/nu mice (female, 20 ± 3 g, 4- to 6-week-old; Department of Laboratory Animal Science, Zhejiang University) were used in this study. The SW480 and BxPC3 xenografts were generated, and 5×10^6 tumor cells were subcutaneously injected into the flanks of female athymic nude mice. The PDX-bearing mouse models were established as follows. Pancreatic cancer (diagnosed as pancreatic ductal adenocarcinoma) tissues were obtained from the surgery of a patient. Written informed consent was obtained from the patient, and the research protocol was approved by the Clinical Research Ethics Committee of the First Affiliated Hospital of Zhejiang University School of Medicine. The sample was sectioned into about 1mm^3 pieces, and the tumor tissues were subcutaneously implanted into BALB/c nu/nu mice flanks. Mice were allowed free access to sterile water and food and were kept under strict disease-free conditions with controlled temperature (~25°C), humidity (50-70%), and circadian rhythms (12-hour light/dark cycles). All necessary procedures were carried out to minimize discomfort and avoid the waste of animals. The length and width of the tumor were measured every other day. Biodistribution studies and positron emission tomography in mice were performed after the tumor volume reached 150 to 200 mm^3.
# The BALB/c nude mice were randomized into different tumor models (SW480, BxPC3, and pancreatic PDX), including 5 mice per group. Each nude mouse was injected with 0.74MBq (20μCi) [^18F]AlF-NOTA-ADH-1 through the caudal vein. Blood was collected from the orbit, and the mice were dissected to collect the brain, heart, lung, liver, liver, spleen, stomach, intestine, muscle, bone and others at 30 min, […], 60min, 90min and 120min after injection. In the blocked group, the study was performed with a saturating dose of ADH-1 (20 mg/kg of mouse body weight) intravenously administered 60min before the intravenous injection of [^18F]AlF-NOTA-ADH-1 in the pancreatic PDX model and SW480 xenograft model. The mice in the tumor xenograft model were sacrificed 1h after [^18F]AlF-NOTA-ADH-1 injection. The nude mice were dissected, and tumor tissues and related tissues (blood, brain, heart, lung, liver, spleen, kidney, stomach, intestine, muscle and bone) were weighed, and their radioactivity was measured by γ-counter. The radioactivity results were recorded as % ID/g.
# [1] = blocking (ADH-1 20 mg/kg i.v. 60min before), 60min p.i.
structure (smiles),measurement,setting,value
CC(=O)N[C@H]1CSSC[C@@H](C(=O)NCCNC(=O)CN2CCN(CC(=O)O)CCN(CC(=O)O)CC2)NC(=O)[C@H](C(C)C)NC(=O)[C@H](C)NC(=O)[C@H](Cc2c[nH]cn2)NC1=O [[^18F]AlF-NOTA-ADH-1],T/Blood ratio,[1],3.96±0.33
same,T/Muscle ratio,[1],1.03±0.56
same,Tumor uptake,[1],1.07±0.57 %ID/g
same,T/Blood ratio,"non-blocking, 30min p.i.",5.77±0.13
same,T/Muscle ratio,"non-blocking, 30min p.i.",1.75±0.47
same,Tumor uptake,"non-blocking, 30min p.i.",1.73±0.11 %ID/g
same,T/Blood ratio,"non-blocking, 60min p.i.",7.42±1.01
same,T/Muscle ratio,"non-blocking, 60min p.i.",1.91±0.69
same,Tumor uptake,"non-blocking, 60min p.i.",2.08±1.64 %ID/g
same,T/Blood ratio,"non-blocking, 90min p.i.",9.6±0.76
same,T/Muscle ratio,"non-blocking, 90min p.i.",1.23±0.92
same,Tumor uptake,"non-blocking, 90min p.i.",0.96±0.15 %ID/g
same,T/Blood ratio,"non-blocking, 120min p.i.",6.08±0.35
same,T/Muscle ratio,"non-blocking, 120min p.i.",0.86±0.23
same,Tumor uptake,"non-blocking, 120min p.i.",0.73±0.67 %ID/g
